The values below come from ChEMBL document CHEMBL3875185, “Structure-anticonvulsant activity studies in the group of (E)-N-cinnamoyl aminoalkanols derivatives monosubstituted in phenyl ring with 4-Cl, 4-CH3 or 2-CH3” (Bioorg Med Chem, 2017).

One series relates to Jurkat. Put plainly: Displacement of [3H]DTG from sigma receptor in human Jurkat cells at 100 uM measured after 120 mins by scintillation counting method relative to control. The class given is cell-based.
Series [1] is described as follows: Protection index, ratio of TD50 for neurotoxicity in ip dosed Sprague-Dawley rat model to ED50 for ip dosed pentylenetetrazole induced seizure Sprague-Dawley rat model. The following applies: in vivo, read-out: Ratio TD50/ED50. The series is classed as toxicity, organism-based.
Series [2] relates to Mus musculus. Briefly: Anticonvulsant activity in ip dosed maximal electroshock induced seizure mouse model assessed as suppression in hindlimb tonic extension by measuring time to peak effect. The class given is functional.
Series [3] is filed under the species Rattus norvegicus. Put plainly: Displacement of [3H]GABA from rat cerebral cortex GABA receptor at 100 uM. For orientation: Loss of bound radioactivity is the signal in a displacement assay; it reports binding, not function.
Series [4] has as its target D(3) dopamine receptor (Homo sapiens) (UniProt P35462). Briefly: Displacement of [3H]methyl-spiperone from human recombinant dopamine D3 receptor expressed in CHO cells at 100 uM measured after 60 mins by scintillation counting method relative to control. The class given is cell-based.
The target of series [5] is Beta-1 adrenergic receptor (Homo sapiens) (UniProt P08588). Briefly: Displacement of [3H]CGP 12177 from human recombinant beta1 adrenergic receptor expressed in HEK293 cells at 100 uM measured after 60 mins by scintillation counting method relative to control. The class given is cell-based.
Series [6] has as its target Prostaglandin E2 receptor EP2 subtype (Homo sapiens) (UniProt P43116). Put plainly: Displacement of [3H]PGE2 from human recombinant EP2 receptor expressed in HEK293 cells at 100 uM measured after 120 mins by scintillation counting method relative to control. The class given is cell-based.
For series [7], the target named is 5-hydroxytryptamine receptor 2B (Homo sapiens) (UniProt P41595). Put plainly: Displacement of [125I]DOI from human recombinant 5HT2B receptor expressed in CHO cells at 100 uM measured after 60 mins by scintillation counting method relative to control. The series is classed as cell-based.
Series [8] in a line: Protection index, ratio of TD50 for neurotoxicity in ip dosed mouse to ED50 for ip dosed maximal electroshock induced seizure mouse model. The class given is toxicity, organism-based. To be noted: in vivo, read-out: Ratio TD50/ED50. A general note: The maximal electroshock test induces tonic seizures with an electrical stimulus.
In series [9] the target is Mu-type opioid receptor (Homo sapiens) (UniProt P35372). Put plainly: Displacement of [3H]DAMGO from human recombinant mu-opioid receptor expressed in HEK293 cells at 100 uM measured after 120 mins by scintillation counting method relative to control. The series is classed as cell-based.
Series [10] can be described thus: Protection index, ratio of TD50 for neurotoxicity in ip dosed mouse to ED50 for ip dosed 6-Hz induced seizure mouse model at 32 mA. The class given is toxicity, organism-based. To be noted: in vivo, read-out: Ratio TD50/ED50.
The target of series [11] is Sodium-dependent serotonin transporter (Homo sapiens) (UniProt P31645). Briefly: Displacement of [3H]imipramine from human recombinant 5HT transporter expressed in CHO cells at 100 uM measured after 60 mins by scintillation counting method relative to control. The series is classed as cell-based.
The subject of series [12] is Mus musculus. Put plainly: Anticonvulsant activity in pentylenetetrazole induced seizure mouse model assessed as no observable episode of clonic convulsion of at least 5 secs at 300 mg/kg, ip measured at 0.5 hrs post dose. The class given is functional, organism-based.
Series [13] deals with T1, Peroxisome proliferator-activated receptor gamma (Homo sapiens) (UniProt P37231).
T1 sequence (whole entry): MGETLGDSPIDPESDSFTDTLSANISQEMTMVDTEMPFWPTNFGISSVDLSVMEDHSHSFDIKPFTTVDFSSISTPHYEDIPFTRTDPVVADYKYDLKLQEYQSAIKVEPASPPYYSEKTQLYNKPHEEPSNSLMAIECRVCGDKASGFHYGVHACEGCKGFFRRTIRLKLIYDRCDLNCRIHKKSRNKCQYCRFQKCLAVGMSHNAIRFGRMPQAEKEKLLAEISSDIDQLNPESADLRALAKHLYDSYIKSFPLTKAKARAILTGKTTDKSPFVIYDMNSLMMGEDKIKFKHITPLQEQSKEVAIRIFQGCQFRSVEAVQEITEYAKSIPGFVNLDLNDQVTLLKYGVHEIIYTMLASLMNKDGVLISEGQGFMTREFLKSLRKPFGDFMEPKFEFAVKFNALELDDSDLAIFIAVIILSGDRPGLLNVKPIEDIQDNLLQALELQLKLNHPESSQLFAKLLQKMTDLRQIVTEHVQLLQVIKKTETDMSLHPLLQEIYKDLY
Put plainly: Displacement of [3H]rosiglitazone from human recombinant PPAR-gamma receptor expressed in Escherichia coli at 100 uM measured after 120 mins by scintillation counting method relative to control.

Series [14] relates to Mus musculus. Put plainly: Anticonvulsant activity in ip dosed 6-Hz induced seizure mouse model assessed as restoration of normal activity within 10 secs from stimulation at 32 mA. The series is classed as functional.
Series [15] has as its target T2, Cholecystokinin receptor type A (Homo sapiens) (UniProt P32238).
T2 sequence (whole entry): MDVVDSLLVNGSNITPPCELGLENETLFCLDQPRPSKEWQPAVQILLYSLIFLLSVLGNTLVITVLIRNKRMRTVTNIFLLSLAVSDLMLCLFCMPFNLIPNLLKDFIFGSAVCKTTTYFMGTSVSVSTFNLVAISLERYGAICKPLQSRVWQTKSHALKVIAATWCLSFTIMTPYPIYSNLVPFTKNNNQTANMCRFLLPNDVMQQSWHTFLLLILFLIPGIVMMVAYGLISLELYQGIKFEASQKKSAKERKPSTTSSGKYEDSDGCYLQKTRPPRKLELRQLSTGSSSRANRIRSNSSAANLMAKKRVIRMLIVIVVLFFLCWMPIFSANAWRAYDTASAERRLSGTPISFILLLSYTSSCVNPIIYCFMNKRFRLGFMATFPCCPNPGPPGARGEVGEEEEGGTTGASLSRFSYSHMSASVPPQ
Briefly: Displacement of [125I]CCK-8s from human recombinant CCK1 receptor expressed in CHO cells at 100 uM measured after 60 mins by scintillation counting method relative to control. The series is classed as cell-based.

The target of series [16] is Kappa-type opioid receptor (Rattus norvegicus) (UniProt P34975). Put plainly: Displacement of [3H]U 69593 from rat recombinant kappa-opioid receptor expressed in CHO cells at 100 uM measured after 60 mins by scintillation counting method relative to control. The series is classed as cell-based.
Series [17] concerns Rattus norvegicus. Briefly: Neurotoxicity in Sprague-Dawley rat assessed as behavioral change at 30 mg/kg, po measured at 4 hrs post dose. The class given is toxicity, organism-based. To be noted: in vivo.
Series [18] has as its target Nociceptin receptor (Homo sapiens) (UniProt P41146). Put plainly: Displacement of [3H]nociceptin from human recombinant NOP receptor expressed in HEK293 cells at 100 uM measured after 60 mins by scintillation counting method relative to control. The class given is cell-based.
For series [19], the system named is Rattus norvegicus. Put plainly: Anticonvulsant activity in ip dosed pentylenetetrazole induced seizure Sprague-Dawley rat model assessed as no observable episode of clonic convulsion of at least 5 secs by measuring time to peak effect. The series is classed as functional.
Series [20] is described as follows: Protection index, ratio of TD50 for neurotoxicity in ip dosed Sprague-Dawley rat model to ED50 for ip dosed maximal electroshock induced seizure Sprague-Dawley rat model. The series is classed as toxicity, organism-based. To be noted: in vivo, read-out: Ratio TD50/ED50.

Molecules are shown by their SMILES. Activity calls are given as the source filed them. The rule behind the calls is not given here.

Chain of Mu-type opioid receptor (Homo sapiens) (P35372 whole entry): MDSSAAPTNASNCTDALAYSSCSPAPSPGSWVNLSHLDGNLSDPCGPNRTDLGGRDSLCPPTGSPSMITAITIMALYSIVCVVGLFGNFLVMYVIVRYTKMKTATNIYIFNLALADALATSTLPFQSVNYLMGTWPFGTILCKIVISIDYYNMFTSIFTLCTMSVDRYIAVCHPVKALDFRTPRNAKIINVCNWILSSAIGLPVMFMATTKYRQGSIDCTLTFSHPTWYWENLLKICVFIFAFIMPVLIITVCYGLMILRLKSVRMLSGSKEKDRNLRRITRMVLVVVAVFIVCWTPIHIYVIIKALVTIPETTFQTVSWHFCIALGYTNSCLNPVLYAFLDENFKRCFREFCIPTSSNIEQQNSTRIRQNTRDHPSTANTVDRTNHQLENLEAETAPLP
Chain of Beta-1 adrenergic receptor (Homo sapiens) (P08588 whole entry, looked up): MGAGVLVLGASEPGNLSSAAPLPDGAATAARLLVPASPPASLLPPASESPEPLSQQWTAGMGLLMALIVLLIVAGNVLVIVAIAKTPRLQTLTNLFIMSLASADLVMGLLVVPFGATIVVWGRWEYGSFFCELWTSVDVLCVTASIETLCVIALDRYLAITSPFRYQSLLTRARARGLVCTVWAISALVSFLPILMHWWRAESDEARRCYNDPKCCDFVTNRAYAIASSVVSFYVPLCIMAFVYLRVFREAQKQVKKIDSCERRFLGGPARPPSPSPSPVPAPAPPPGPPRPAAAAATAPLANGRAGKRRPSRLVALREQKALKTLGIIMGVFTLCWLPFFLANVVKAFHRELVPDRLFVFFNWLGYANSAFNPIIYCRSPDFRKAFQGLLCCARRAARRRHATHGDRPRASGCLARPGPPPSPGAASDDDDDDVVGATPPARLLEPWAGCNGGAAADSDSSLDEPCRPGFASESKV
Chain of Sodium-dependent serotonin transporter (Homo sapiens) (P31645 whole entry, looked up): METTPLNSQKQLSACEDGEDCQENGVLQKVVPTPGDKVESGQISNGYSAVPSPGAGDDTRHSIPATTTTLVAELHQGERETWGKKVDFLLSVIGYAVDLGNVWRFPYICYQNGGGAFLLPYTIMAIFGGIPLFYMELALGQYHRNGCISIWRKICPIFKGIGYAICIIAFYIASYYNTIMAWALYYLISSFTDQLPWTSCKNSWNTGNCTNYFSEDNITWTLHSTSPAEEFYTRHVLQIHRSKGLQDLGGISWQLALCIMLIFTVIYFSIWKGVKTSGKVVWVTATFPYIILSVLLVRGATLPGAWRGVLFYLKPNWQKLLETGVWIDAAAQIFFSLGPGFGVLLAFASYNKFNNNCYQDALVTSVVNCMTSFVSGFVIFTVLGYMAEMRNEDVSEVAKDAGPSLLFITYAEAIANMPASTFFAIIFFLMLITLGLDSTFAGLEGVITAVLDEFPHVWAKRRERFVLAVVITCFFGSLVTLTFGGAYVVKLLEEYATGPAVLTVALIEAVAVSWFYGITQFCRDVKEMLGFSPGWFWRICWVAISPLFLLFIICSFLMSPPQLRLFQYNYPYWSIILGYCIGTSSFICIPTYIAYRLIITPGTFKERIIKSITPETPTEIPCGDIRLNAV
Chain of D(3) dopamine receptor (Homo sapiens) (P35462 whole entry): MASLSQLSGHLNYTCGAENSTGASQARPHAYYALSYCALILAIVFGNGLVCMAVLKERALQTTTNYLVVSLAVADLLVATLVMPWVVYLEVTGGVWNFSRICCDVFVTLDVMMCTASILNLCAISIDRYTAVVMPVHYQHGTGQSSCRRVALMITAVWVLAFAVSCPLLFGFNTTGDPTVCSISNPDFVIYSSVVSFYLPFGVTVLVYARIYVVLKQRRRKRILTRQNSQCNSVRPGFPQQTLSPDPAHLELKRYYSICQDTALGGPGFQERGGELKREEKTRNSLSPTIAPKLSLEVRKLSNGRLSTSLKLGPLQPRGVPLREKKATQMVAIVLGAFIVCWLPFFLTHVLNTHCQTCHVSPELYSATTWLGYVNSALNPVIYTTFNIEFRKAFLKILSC
Chain of Nociceptin receptor (Homo sapiens) (P41146 whole entry): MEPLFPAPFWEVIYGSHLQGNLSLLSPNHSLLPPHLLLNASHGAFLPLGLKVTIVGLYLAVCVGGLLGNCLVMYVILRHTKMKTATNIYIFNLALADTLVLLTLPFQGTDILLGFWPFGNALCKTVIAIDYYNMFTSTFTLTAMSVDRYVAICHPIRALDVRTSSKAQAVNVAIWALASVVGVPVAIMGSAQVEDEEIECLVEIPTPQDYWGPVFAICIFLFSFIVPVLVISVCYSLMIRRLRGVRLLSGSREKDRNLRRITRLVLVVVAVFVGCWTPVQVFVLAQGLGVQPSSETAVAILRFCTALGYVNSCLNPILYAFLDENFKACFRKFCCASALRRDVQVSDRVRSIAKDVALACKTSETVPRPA
Chain of Prostaglandin E2 receptor EP2 subtype (Homo sapiens) (P43116 whole entry): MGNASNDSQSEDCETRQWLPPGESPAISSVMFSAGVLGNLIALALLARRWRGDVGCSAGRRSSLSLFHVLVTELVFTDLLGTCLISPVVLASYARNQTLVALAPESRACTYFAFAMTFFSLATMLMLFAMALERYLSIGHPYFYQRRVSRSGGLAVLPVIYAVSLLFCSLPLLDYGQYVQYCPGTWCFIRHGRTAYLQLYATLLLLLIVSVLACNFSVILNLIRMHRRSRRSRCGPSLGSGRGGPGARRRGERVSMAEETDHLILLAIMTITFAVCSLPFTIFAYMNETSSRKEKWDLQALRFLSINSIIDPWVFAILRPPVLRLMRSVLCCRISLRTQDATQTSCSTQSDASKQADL
Chain of Kappa-type opioid receptor (Rattus norvegicus) (P34975 whole entry): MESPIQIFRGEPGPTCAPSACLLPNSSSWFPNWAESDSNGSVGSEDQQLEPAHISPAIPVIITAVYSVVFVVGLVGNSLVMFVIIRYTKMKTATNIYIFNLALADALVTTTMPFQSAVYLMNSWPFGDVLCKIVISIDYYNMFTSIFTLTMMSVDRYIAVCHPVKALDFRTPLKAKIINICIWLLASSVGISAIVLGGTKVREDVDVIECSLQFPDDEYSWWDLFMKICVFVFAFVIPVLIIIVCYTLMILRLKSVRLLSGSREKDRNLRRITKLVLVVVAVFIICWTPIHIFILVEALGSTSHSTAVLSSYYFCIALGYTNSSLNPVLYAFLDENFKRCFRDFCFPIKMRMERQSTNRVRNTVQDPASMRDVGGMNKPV
Chain of 5-hydroxytryptamine receptor 2B (Homo sapiens) (P41595 whole entry): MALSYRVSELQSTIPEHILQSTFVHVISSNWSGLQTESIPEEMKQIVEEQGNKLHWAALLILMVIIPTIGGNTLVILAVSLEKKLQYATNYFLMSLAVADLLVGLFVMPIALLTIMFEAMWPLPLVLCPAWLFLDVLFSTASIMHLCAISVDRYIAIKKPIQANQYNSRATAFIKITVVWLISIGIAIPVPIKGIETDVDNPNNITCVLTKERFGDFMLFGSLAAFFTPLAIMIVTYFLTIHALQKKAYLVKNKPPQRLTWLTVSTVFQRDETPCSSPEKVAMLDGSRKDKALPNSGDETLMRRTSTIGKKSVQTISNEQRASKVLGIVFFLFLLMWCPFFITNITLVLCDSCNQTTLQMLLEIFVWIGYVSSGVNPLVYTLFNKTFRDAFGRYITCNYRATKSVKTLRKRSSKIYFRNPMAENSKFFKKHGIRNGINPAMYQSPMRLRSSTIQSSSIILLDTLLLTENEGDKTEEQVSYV

The term inhibition denotes the drop in the measured response relative to a control, in per cent. The term ED50 denotes the midpoint of the dose-response relation. Regarding `Cc1ccccc1/C=C/C(=O)N[C@@H](C)CO`, the inhibition is -3.5% in the series with Jurkat; 13.2% in the series listed under Rattus norvegicus [3]; 7.2% in [4]; -2.8% in [5]; 37.8% in series [6]; 79.8% in series [7]. In addition, the inhibition in series [9] is 0.4%; in series [11], 0.9%; in [13], 3%; in series [15], -5.8%; in series [16] it was 14.8%; in series [18], 2.2%. Also, the selectivity ratio in series [1] was determined as 4.18; in [8], 3.53; in series [10], 2.86; in [20] it was 6.3. Also, the Time in the series on Mus musculus [2] and in the series on Rattus norvegicus [19] was 0.25 h each time. In addition, in the series with Mus musculus [12], the outcome was Active. Also, the ED50 in the series on Mus musculus [14] was 52.6 mg/kg. Also, the Activity entry in the series on Rattus norvegicus [17] was “Non-Toxic”.

`CC(O)CNC(=O)/C=C/c1ccc(Cl)cc1` (stereo not drawn): the inhibition was 22.9% in the series on Jurkat; -1.3% in the series listed under Rattus norvegicus [3]; 17.4% in [4]; 0.7% in series [5]; 29.7% in series [6]; 41.6% in [7]. Besides, the inhibition is 11.3% in series [9]; -1.9% in series [11]; 2.3% in series [13]; 26% in series [15]; 31.6% in series [16]; 1.7% in series [18]. The selectivity ratio in [1] amounted to 1.25; in [8], 3.24; in [10] it was 4.26; in series [20], 1.66. Besides, the Time in the series on Mus musculus [2] and in the series with Rattus norvegicus [19] was 0.5 h each time. The result in the series on Mus musculus [12] was Active. For the same molecule, in the series with Mus musculus [14], the ED50 is 42.3 mg/kg. In addition, in the series with Rattus norvegicus [17], the Activity entry was “Non-Toxic”.

Consider `CCC(CO)NC(=O)/C=C/c1ccc(Cl)cc1` (stereo not drawn), for which the inhibition in the series on Jurkat is 25.4%; in the series filed under Rattus norvegicus [3] it was 8.7%; in series [4], 18.2%; in [5], -2.9%; in series [6] it was 57.6%; in series [7], 58.2%. The inhibition in [9] was 23.3%; in series [11], -2.5%; in [13], 26.7%; in series [15], 11%; in series [16], 41.9%; in series [18] it was -4.4%. The selectivity ratio in series [1] was determined as 1.23; in series [8], 3.65; in series [10], 3.41; in series [20], 3.74. The Time is 0.25 h with Mus musculus [2] and 0.5 h in the series with Rattus norvegicus [19]. The outcome in the series on Mus musculus [12] was Active. In the series on Mus musculus [14], the ED50 was determined as 57.6 mg/kg. Further, the Activity result with Rattus norvegicus [17] is “Non-Toxic”.
